In patent US20040053383A1, “Crystals of cytochrome P450 2C9, structures thereof and their use” (ASTEX TECHNOLOGY LTD., priority 2001, published 2004) one finds IC50, Ki and Km data, which are given here for 5 compounds.

Molecules are shown by their SMILES. Where only a bound is given, the exact number is not on record here.

Usually IC50 stands for the point on the concentration scale where inhibition reaches its midpoint. Low values mean higher potency, high ones lower potency. The Ki is the dissociation constant of the complex between target and ligand, obtained from inhibition or displacement. The Km is the concentration of substrate that gives half-maximal velocity.

One test addresses 2C9trunc (Homo sapiens, UniProt P11712). The test can be described thus: Inhibition assay with substrates/inhibitors of 2C9.
Another test addresses 2C9-FGloop K206E (Homo sapiens, UniProt P11712, C216Y/I215V/I222L/I223L/K206E/P221A/S220P). Description: biochemical.
The next test deals with 2C9 (Homo sapiens, UniProt P11712). As to conditions: cited from earlier work; for Ki: read-out: 2C9 Published data, Ki, published.
A further test deals with 2C19 (Homo sapiens, UniProt P33261). As to conditions: protein 2C19 (published), Table 17; cited from earlier work.
A further test has as its target T1, 1155 (Homo sapiens, UniProt P11712, C216Y/I215V/I222L/I223L/K206E/P221A/S220P).
T1 construct: is residue 30 (all numbering is in relation to the full length protein), and the last residue is residue 490; made in house; host or cells: E. coli XL1 Blue
Description: Inhibition assay with substrates/inhibitors of 2C19 and 2C9 (Table 17). Type of test: biochemical. The following applies: protein 1155, Table 17.

The target in another test is T2, 1600 (Homo sapiens, UniProt P11712, C216Y/E288V/F295L/I215V/I222L/I223L/I331V/I99H/K206E/L362I/N289I/P221A/S220P/S286N/V292A).
T2 construct: is residue 30 (all numbering is in relation to the full length protein), and the last residue is residue 490; made in house; host or cells: E. coli XL1 Blue
The test can be described thus: Inhibition assay on 2C9-2C19 chimera (Table 17). Type of test: biochemical. The following applies: chimera 1600, Table 17.

In the next test the target is T3, 1661 (Homo sapiens, UniProt P11712, C216Y/I215V/I222L/I223L/I99H/K206E/N289I/P221A/S220P/S286N).
T3 construct: is residue 30 (all numbering is in relation to the full length protein), and the last residue is residue 490; made in house; host or cells: E. coli XL1 Blue
Description: Inhibition assay on 2C9-2C19 chimera (Table 17). The following applies: chimera 1661, Table 17. Type of test: biochemical.

The next test addresses T4, 1632 (Homo sapiens, UniProt P11712, C216Y/E288V/F295L/I215V/I222L/I223L/I99H/K206E/N289I/P221A/S220P/S286N/V292A).
T4 construct: is residue 30 (all numbering is in relation to the full length protein), and the last residue is residue 490; made in house; host or cells: E. coli XL1 Blue
Description: Inhibition assay on 2C9-2C19 chimera (Table 17). Type of test: biochemical. The following applies: chimera 1632, Table 17.

Chain of 2C9-FGloop K206E (P11712 30-490 K206E/I215V/C216Y/S220P/P221A/I222L/I223L): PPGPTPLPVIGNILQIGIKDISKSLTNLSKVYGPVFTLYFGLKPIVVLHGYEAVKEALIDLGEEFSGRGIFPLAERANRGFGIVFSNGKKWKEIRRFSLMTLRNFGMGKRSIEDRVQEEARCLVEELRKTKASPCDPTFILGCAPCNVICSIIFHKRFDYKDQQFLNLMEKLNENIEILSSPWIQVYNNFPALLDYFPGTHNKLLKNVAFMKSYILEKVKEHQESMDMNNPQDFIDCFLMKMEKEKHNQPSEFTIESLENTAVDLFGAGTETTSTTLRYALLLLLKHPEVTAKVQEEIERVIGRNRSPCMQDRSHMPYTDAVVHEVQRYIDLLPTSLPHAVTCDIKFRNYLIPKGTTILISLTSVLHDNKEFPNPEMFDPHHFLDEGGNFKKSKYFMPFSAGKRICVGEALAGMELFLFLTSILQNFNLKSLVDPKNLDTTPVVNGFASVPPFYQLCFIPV
Chain of 2C9 (P11712 whole entry): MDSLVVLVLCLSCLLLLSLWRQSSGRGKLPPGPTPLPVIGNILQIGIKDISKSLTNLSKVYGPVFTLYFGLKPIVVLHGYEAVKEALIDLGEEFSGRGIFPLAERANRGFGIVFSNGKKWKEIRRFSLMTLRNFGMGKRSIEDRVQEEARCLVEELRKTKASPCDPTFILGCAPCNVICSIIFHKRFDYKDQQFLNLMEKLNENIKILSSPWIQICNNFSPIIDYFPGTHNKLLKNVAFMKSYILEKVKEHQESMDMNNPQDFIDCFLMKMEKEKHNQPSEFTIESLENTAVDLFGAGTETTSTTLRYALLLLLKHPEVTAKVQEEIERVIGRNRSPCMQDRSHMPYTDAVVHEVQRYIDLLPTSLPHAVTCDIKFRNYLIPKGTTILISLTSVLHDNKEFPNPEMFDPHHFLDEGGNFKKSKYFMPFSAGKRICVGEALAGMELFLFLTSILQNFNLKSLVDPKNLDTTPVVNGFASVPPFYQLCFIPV
Chain of 2C9trunc (P11712 30-490): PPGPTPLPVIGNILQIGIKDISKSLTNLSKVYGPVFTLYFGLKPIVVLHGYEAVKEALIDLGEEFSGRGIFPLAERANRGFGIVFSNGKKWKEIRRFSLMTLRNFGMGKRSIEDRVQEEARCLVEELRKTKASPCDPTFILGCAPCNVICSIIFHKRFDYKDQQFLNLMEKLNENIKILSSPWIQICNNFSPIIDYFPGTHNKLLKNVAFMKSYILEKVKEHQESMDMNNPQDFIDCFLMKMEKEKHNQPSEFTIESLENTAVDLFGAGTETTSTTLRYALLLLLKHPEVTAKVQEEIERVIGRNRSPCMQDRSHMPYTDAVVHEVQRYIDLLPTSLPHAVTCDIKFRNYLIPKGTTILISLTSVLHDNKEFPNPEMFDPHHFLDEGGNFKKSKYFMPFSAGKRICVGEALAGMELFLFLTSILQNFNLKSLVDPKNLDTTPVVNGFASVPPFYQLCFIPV
T1 sequence (P11712 30-490 K206E/I215V/C216Y/S220P/P221A/I222L/I223L): as the sequence (P11712 30-490 K206E/I215V/C216Y/S220P/P221A/I222L/I223L) above
Chain of 2C19 (P33261 whole entry): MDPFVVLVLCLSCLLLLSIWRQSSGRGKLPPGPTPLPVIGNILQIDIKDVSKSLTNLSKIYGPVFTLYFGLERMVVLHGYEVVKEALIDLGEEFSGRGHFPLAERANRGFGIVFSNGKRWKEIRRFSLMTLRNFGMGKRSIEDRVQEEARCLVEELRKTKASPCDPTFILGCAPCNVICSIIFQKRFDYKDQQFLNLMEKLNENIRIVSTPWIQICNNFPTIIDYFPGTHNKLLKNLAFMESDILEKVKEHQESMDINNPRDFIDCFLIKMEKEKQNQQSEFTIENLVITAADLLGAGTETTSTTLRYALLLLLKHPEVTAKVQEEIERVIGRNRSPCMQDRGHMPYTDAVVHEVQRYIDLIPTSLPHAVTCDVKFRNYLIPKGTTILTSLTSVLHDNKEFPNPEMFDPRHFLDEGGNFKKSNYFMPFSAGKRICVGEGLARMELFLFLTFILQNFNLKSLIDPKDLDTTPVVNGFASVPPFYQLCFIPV
T2 sequence (P11712 30-490 I99H/K206E/I215V/C216Y/S220P/P221A/I222L/I223L/S286N/E288V/N289I/V292A/F295L/I331V/L362I): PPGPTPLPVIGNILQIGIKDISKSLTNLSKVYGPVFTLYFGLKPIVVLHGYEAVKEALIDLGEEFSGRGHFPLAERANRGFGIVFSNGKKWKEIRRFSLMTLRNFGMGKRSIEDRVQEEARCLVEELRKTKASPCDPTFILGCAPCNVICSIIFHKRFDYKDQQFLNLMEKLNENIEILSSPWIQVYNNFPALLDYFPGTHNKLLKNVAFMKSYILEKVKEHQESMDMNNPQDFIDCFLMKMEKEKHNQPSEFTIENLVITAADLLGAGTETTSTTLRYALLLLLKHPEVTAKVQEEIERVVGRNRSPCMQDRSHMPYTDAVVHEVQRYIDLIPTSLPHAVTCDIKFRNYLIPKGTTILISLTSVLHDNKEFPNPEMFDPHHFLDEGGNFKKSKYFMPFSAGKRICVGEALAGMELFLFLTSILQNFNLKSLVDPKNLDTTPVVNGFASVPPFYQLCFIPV
T4 sequence (P11712 30-490 I99H/K206E/I215V/C216Y/S220P/P221A/I222L/I223L/S286N/E288V/N289I/V292A/F295L): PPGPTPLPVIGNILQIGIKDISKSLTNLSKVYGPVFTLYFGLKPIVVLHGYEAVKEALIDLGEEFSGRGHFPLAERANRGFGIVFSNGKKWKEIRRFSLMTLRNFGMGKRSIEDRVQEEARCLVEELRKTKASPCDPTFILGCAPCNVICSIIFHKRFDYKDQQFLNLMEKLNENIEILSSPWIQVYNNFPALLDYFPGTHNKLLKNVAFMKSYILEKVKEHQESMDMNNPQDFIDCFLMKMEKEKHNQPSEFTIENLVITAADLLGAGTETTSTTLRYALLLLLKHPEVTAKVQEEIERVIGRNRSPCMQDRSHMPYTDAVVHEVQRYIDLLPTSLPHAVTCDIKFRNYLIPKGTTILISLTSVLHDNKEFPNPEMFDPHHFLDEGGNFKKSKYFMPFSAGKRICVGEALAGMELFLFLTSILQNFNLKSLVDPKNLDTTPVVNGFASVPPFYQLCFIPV
T3 sequence (P11712 30-490 I99H/K206E/I215V/C216Y/S220P/P221A/I222L/I223L/S286N/N289I): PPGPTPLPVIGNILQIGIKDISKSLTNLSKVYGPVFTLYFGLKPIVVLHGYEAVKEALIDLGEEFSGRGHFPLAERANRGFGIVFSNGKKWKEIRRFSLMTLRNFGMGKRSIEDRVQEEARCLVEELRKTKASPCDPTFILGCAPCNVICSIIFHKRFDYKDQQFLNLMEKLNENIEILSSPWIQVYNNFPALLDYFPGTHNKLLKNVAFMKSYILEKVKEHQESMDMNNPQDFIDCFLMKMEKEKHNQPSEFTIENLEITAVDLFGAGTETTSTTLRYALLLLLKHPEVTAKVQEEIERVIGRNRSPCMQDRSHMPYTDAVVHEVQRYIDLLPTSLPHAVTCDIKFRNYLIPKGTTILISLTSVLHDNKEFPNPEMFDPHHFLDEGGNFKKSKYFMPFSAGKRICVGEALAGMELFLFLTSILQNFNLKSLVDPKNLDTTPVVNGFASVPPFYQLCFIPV

With `CC(C)(c1ccc(O)cc1)c1ccc(O)cc1` [Bisphenol A], on 2C9trunc, half-maximal inhibition (IC50) was put at 4800 nM and the affinity, expressed as Ki, was 2900 nM. At 2C9-FGloop K206E, it took 7800 nM to reach half-maximal inhibition (IC50) and the Ki came out at 3300 nM. Besides, the Michaelis-Menten constant (Km) at 2C9 is 4 µM.
Turning to `O=C(O)Cc1ccccc1Nc1c(Cl)cccc1Cl` [Diclofenac], the Ki on 2C19 was 231000 nM.
For the compound `CNCCC(Oc1ccc(C(F)(F)F)cc1)c1ccccc1` (stereo not shown) [Fluoxetine], the IC50 on 2C9trunc turned out to be 1500 nM; against 2C9-FGloop K206E, 2100 nM. The Ki on 2C9trunc is 1500 nM; at 2C9-FGloop K206E, 4100 nM; at 2C9 it was 13000 nM.
On to `COCCCC/C(=N\OCCN)c1ccc(C(F)(F)F)cc1` [Fluvoxamine], for which the Ki on 1155 was 400 nM; on 1600, less than 1000 nM; at 2C9trunc it was 700 nM; at 1661, 500 nM; at 1632, 1600 nM; on 2C9-FGloop K206E it was 850 nM. The inhibition constant (Ki) at 2C9 is 2000 to 5000 nM. For the same compound, the IC50 against 2C9trunc is 600 nM; against 2C9-FGloop K206E, 400 nM.
Take `CN1C(C(=O)Nc2ccccn2)=C(O)c2ccccc2S1(=O)=O` [Piroxicam]: the Ki is 30000 nM at 1155; more than 100000 nM on 1600; more than 100000 nM on 1661; more than 100000 nM on 1632; 133000 nM at 2C19.
